Measurements reported in patent publication US12077503B2, “Substituted cyclic amides and their use as herbicides” (FMC CORPORATION, priority 2015, dated 2024).

Key:
Type in all cases: in vivo
[1] = tested on: barnyardgrass (Echinochloa crus-galli); test: Test G Pre-Emergence Protocol; details: Echinochloa crus-galli, pre-emergence, 312 h, evaluated after 13 days
Outline: (§1)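 One day after sowing, pots are treated with a spray of test compound formulated in acetone/water 50:50 plus 0.5% Tween 20, giving 15.625, 62.5 or 250 g/ha. Evaluation on a 0–100 damage scale follows 13 days of glasshouse growth.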

corn (Zea mays) [2] = test: Test G Pre-Emergence Protocol; details: Zea mays, pre-emergence, 312 h, evaluated after 13 days
Outline: as §1

[3] = tested on: giant foxtail (Setaria faberi); test: Test G Pre-Emergence Protocol; details: Setaria faberi, pre-emergence, 312 h, evaluated after 13 days
Outline: as §1

[4] = tested on: ivy-leaved morning glory (Ipomoea hederacea); test: Test G Pre-Emergence Protocol; details: Ipomoea, pre-emergence, 312 h, evaluated after 13 days
Outline: as §1

[5] = tested on: redroot pigweed (Amaranthus retroflexus); test: Test G Pre-Emergence Protocol; details: Amaranthus retroflexus, pre-emergence, 312 h, evaluated after 13 days
Outline: as §1

[6] = tested on: velvetleaf (Abutilon theophrasti); test: Test G Pre-Emergence Protocol; details: Abutilon theophrasti, pre-emergence, 312 h, evaluated after 13 days
Outline: as §1

[7] = tested on: barnyardgrass (Echinochloa crus-galli); test: Test G Post-Emergence Protocol; details: Echinochloa crus-galli, post-emergence, 312 h
Outline: (§2)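 Foliar application was made 8 days after sowing, using an aqueous spray of the active in acetone/water (50:50) with 0.5% Tween 20, at doses of 15.625, 62.5 or 250 g/ha. Injury was assessed 13 days later, where 100 meant the plant was fully damaged.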

corn (Zea mays) [8] = test: Test G Post-Emergence Protocol; details: Zea mays, post-emergence, 312 h
Outline: as §2

[9] = tested on: giant foxtail (Setaria faberi); test: Test G Post-Emergence Protocol; details: Setaria faberi, post-emergence, 312 h
Outline: as §2

[10] = tested on: ivy-leaved morning glory (Ipomoea hederacea); test: Test G Post-Emergence Protocol; details: Ipomoea, post-emergence, 312 h
Outline: as §2

[11] = tested on: redroot pigweed (Amaranthus retroflexus); test: Test G Post-Emergence Protocol; details: Amaranthus retroflexus, post-emergence, 312 h
Outline: as §2

[12] = tested on: velvetleaf (Abutilon theophrasti); test: Test G Post-Emergence Protocol; details: Abutilon theophrasti, post-emergence, 312 h
Outline: as §2

Molecule `CN1C[C@@H](c2cc(Cl)cc(C(F)(F)F)c2)[C@H](C(=O)Nc2ccccc2F)C1=O` (racemic) [Compound 1414] has a pest or weed control at 15.625 g/ha ([1]; 15.625 g ai/ha, read-out: Barnyard grass damage rating (100=total damage to plant; 0=no damage to plant)) of 20%, a pest or weed control at 62.5 g/ha ([1]; 62.5 g ai/ha, 100=total damage to plant, 0=no damage to plant, read-out: plant damage rating, Barnyardgrass) of 70% and a pest or weed control at 250 g/ha ([1]; 250 g ai/ha, read-out: Barnyardgrass damage rating (100=total damage to plant; 0=no damage to plant)) of 80%. The plant injury at 15.625 g/ha (corn (Zea mays) [2]; 15.625 g ai/ha, read-out: Corn damage rating (100=total damage to plant; 0=no damage to plant)) was 0%, the plant injury at 62.5 g/ha (corn (Zea mays) [2]; 62.5 g ai/ha, 100=total damage to plant, 0=no damage to plant, read-out: plant damage rating, Corn) was 20% and the plant injury at 250 g/ha (corn (Zea mays) [2]; 250 g ai/ha, read-out: Corn damage rating (100=total damage to plant; 0=no damage to plant)) was 50%. For the same molecule, the pest or weed control at 15.625 g/ha ([3]; 15.625 g ai/ha, read-out: Foxtail, Giant damage rating (100=total damage to plant; 0=no damage to plant)) was 60%, the pest or weed control at 62.5 g/ha ([3]; 62.5 g ai/ha, 100=total damage to plant, 0=no damage to plant, read-out: plant damage rating, Foxtail, Giant) was 80% and the pest or weed control at 250 g/ha ([3]; 250 g ai/ha, read-out: Foxtail, Giant damage rating (100=total damage to plant; 0=no damage to plant)) was 80%. It also gave a pest or weed control at 15.625 g/ha ([4]; 15.625 g ai/ha, read-out: Morning-glory, Ivy-leaved damage rating (100=total damage to plant; 0=no damage to plant)) of 0%, a pest or weed control at 62.5 g/ha ([4]; 62.5 g ai/ha, 100=total damage to plant, 0=no damage to plant, read-out: plant damage rating, Morningglory, Ivy-leaved) of 0% and a pest or weed control at 250 g/ha ([4]; 250 g ai/ha, read-out: Morningglory, Ivy-leaved damage rating (100=total damage to plant; 0=no damage to plant)) of 20%. For the same molecule, the pest or weed control at 15.625 g/ha ([5]; 15.625 g ai/ha, read-out: Pigweed, Redroot damage rating (100=total damage to plant; 0=no damage to plant)) was 0%, the pest or weed control at 62.5 g/ha ([5]; 62.5 g ai/ha, 100=total damage to plant, 0=no damage to plant, read-out: plant damage rating, Pigweed, Redroot) was 0% and the pest or weed control at 250 g/ha ([5]; 250 g ai/ha, read-out: Pigweed, Redroot damage rating (100=total damage to plant; 0=no damage to plant)) was 0%. For the same molecule, the pest or weed control at 15.625 g/ha ([6]; 15.625 g ai/ha, read-out: Velvetleaf damage rating (100=total damage to plant; 0=no damage to plant)) was 0%, the pest or weed control at 62.5 g/ha ([6]; 62.5 g ai/ha, 100=total damage to plant, 0=no damage to plant, read-out: plant damage rating, Velvetleaf) was 0% and the pest or weed control at 250 g/ha ([6]; 250 g ai/ha, read-out: Velvetleaf damage rating (100=total damage to plant; 0=no damage to plant)) was 0%. The pest or weed control at 15.625 g/ha ([7]; 15.625 g ai/ha, evaluated after 13 days (100=total damage to plant; 0=no damage to plant), read-out: Barnyardgrass damage rating) was 50%, the pest or weed control at 62.5 g/ha ([7]; 62.5 g ai/ha, evaluated after 13 days, read-out: Barnyardgrass damage rating (100=total damage to plant; 0=no damage to plant)) was 50% and the pest or weed control at 250 g/ha ([7]; 250 g ai/ha, evaluated after 13 days, read-out: damage to plant, Barnyardgrass (100=total damage to plant; 0=no damage to plant)) was 60%. For the same molecule, the plant injury at 15.625 g/ha (corn (Zea mays) [8]; 15.625 g ai/ha, evaluated after 13 days (100=total damage to plant; 0=no damage to plant), read-out: Corn damage rating) was 20%, the plant injury at 62.5 g/ha (corn (Zea mays) [8]; 62.5 g ai/ha, evaluated after 13 days, read-out: Corn damage rating (100=total damage to plant; 0=no damage to plant)) was 50% and the plant injury at 250 g/ha (corn (Zea mays) [8]; 250 g ai/ha, evaluated after 13 days, read-out: damage to plant, Corn (100=total damage to plant; 0=no damage to plant)) was 80%. For the same molecule, the pest or weed control at 15.625 g/ha ([9]; 15.625 g ai/ha, evaluated after 13 days (100=total damage to plant; 0=no damage to plant), read-out: Foxtail, Giant damage rating) was 70%, the pest or weed control at 62.5 g/ha ([9]; 62.5 g ai/ha, evaluated after 13 days, read-out: Foxtail, Giant damage rating (100=total damage to plant; 0=no damage to plant)) was 70% and the pest or weed control at 250 g/ha ([9]; 250 g ai/ha, evaluated after 13 days, read-out: damage to plant, Foxtail, Giant (100=total damage to plant; 0=no damage to plant)) was 80%. It also gave a pest or weed control at 15.625 g/ha ([10]; 15.625 g ai/ha, evaluated after 13 days (100=total damage to plant; 0=no damage to plant), read-out: Morningglory, Ivy-leaved damage rating) of 0%, a pest or weed control at 62.5 g/ha ([10]; 62.5 g ai/ha, evaluated after 13 days, read-out: Morningglory, Ivy-leaved damage rating (100=total damage to plant; 0=no damage to plant)) of 30% and a pest or weed control at 250 g/ha ([10]; 250 g ai/ha, evaluated after 13 days, read-out: damage to plant, Morningglory, Ivy-leaved (100=total damage to plant; 0=no damage to plant)) of 30%. The pest or weed control at 15.625 g/ha ([11]; 15.625 g ai/ha, evaluated after 13 days (100=total damage to plant; 0=no damage to plant), read-out: Pigweed, Redroot damage rating) was 10%, the pest or weed control at 62.5 g/ha ([11]; 62.5 g ai/ha, evaluated after 13 days, read-out: Pigweed, Redroot damage rating (100=total damage to plant; 0=no damage to plant)) was 0% and the pest or weed control at 250 g/ha ([11]; 250 g ai/ha, evaluated after 13 days, read-out: damage to plant, Pigweed, Redroot (100=total damage to plant; 0=no damage to plant)) was 30%. The pest or weed control at 15.625 g/ha ([12]; 15.625 g ai/ha, evaluated after 13 days (100=total damage to plant; 0=no damage to plant), read-out: Velvetleaf damage rating) was 0%, the pest or weed control at 62.5 g/ha ([12]; 62.5 g ai/ha, evaluated after 13 days, read-out: Velvetleaf damage rating (100=total damage to plant; 0=no damage to plant)) was 0% and the pest or weed control at 250 g/ha ([12]; 250 g ai/ha, evaluated after 13 days, read-out: damage to plant, Velvetleaf (100=total damage to plant; 0=no damage to plant)) was 0%.
